Legend:
Format in all cases: in vivo, C57BL/6J mice
[1] = tested on: high-fat diet-induced obese mice; assay: Hepatic tissue morphologies (H&E); details: FIG. 4C, 200×, HFD+5% w/w in diet, 16 weeks
Experimental: (§1) First, 4-week-old male C57BL/6J mice (60 total) were purchased from Jackson Laboratory. The animals were acclimated to the vivarium in a thermo-hygrostat (20-23° C., 45-65%) under a 12 h light/dark cycle and fed a pelletized commercial non-purified diet for 1 week after arrival. The mice were then randomly divided into 6 groups (n=10) and fed the respective experimental diets for 16 weeks: normal diet group (ND, American Institute of Nutrition (AIN)-76 semi-synthetic diet), high-fat diet group (HFD, 20% fat+1% cholesterol based on AIN-76 diet), PSI group (HFD+5% D-psicose, w/w, Sigma Chemical Company), ERY group (HFD+5% erythritol, w/w, Sigma Chemical Company), GLU group (HFD+5% D-glucose, w/w, Sigma Chemical Company), and FRU group (HFD+5% D-fructose, w/w, Sigma Chemical Company). All high-fat diet-fed groups were allowed to ingest the same calories by pair feeding based on the PSI group. The mice had ad libitum access to distilled water during the experimental period. Their feed intakes and body weights were measured daily and biweekly, respectively. The organ weights and the adipose tissue weights of the mice were measured after sacrificing the animals.
Liver tissues were removed from the mice in the normal diet group (ND) and high-fat diet groups (HFD, ERY, GLU, FRU, and PSI) and fixed in a buffer solution of 10% formalin. The fixed liver tissues were embedded in paraffin. […] sections were prepared from the liver tissues and their cross-sections were dyed with hematoxylin and eosin. Stained areas were observed using an optical microscope at a magnification of 200× (Nikon, Tokyo, Japan).

[2] = tested on: fatty acid synthase (FAS); assay: Hepatic lipid regulating enzyme activity: FAS; details: FIG. 4B, liver cytoplasmic fraction, HFD+5% w/w in diet, 16 weeks
Experimental: as §1, with “animals. Samples were prepared and analyzed according to the method developed by Hulcher and Oleson. Specifically, the activity of fatty acid synthase (FAS) as a hepatic lipid regulating enzyme was measured by spectrophotometric assay according to the method described by Nepokroeff et al. Each sample was mixed with 100 μl of cytoplasmic fraction and the mixture was allowed to react at 30° C. for 2 min. A reduction in absorbance at 340 nm was measured. Fatty acid synthase (FAS) activity units were expressed as nanomoles (nmol) of NADPH oxidized for 1 min per mg of cytoplasmic fraction. Fatty acid β-oxidation activity was measured by monitoring the reduction of NAD^+ to NADH in the presence of palmitoyl-CoA, as described by Lazarow. β-oxidation activity units were expressed as nanomoles (nmol) of NADH produced for 1 min per mg of mitochondrial protein.” for “animals.”

[3] = tested on: high-fat diet-induced obese mice; assay: Hepatic lipid profiles; details: FIG. 4A, HFD+5% w/w in diet, 16 weeks
Experimental: as §1
Hepatic lipids were extracted from mice in the normal diet group (ND) and high-fat diet groups (HFD, ERY, GLU, FRU, and PSI) and dried. Then, each of the dried hepatic lipid extracts was dissolved in 1 ml of ethanol. 200 μl of the lipid solution was emulsified in a solution of Triton X-100 and sodium cholate in distilled water. Hepatic fatty acid, triglyceride, and cholesterol levels were analyzed using the same enzymatic kits as those used in Example 2.

Fatty acid β-oxidation = assay: Hepatic fatty acid β-oxidation activity; details: FIG. 4B, liver, HFD+5% w/w in diet, 16 weeks
Experimental: as §1, with “animals. Samples were prepared and analyzed according to the method developed by Hulcher and Oleson. Specifically, the activity of fatty acid synthase (FAS) as a hepatic lipid regulating enzyme was measured by spectrophotometric assay according to the method described by Nepokroeff et al. Each sample was mixed with 100 μl of cytoplasmic fraction and the mixture was allowed to react at 30° C. for 2 min. A reduction in absorbance at 340 nm was measured. Fatty acid synthase (FAS) activity units were expressed as nanomoles (nmol) of NADPH oxidized for 1 min per mg of cytoplasmic fraction. Fatty acid β-oxidation activity was measured by monitoring the reduction of NAD^+ to NADH in the presence of palmitoyl-CoA, as described by Lazarow. β-oxidation activity units were expressed as nanomoles (nmol) of NADH produced for 1 min per mg of mitochondrial protein.” for “animals.”

[4] = tested on: CPT1α (Carnitine palmitoyltransferase 1α, 12894); assay: Hepatic mRNA expression, real-time quantitative PCR: CPT1α; details: FIG. 6, liver, HFD+5% w/w in diet, 16 weeks
Experimental: as §1
Samples were prepared and analyzed as previously described. Specifically, total RNA was synthesized into cDNA using a QuantiTect Reverse Transcription kit (QIAGEN Gmb1h, Hilden, Germany). RNA expression was quantified with real-time quantitative PCR using a QuantiTect SYBR Green PCR kit (QIAGEN Gmb1h, Hilden, Germany). Primers were designed to detect FAS (fatty acid synthase, 14101), ACC1 (Acetyl-CoA carboxylase 1, 107476), CPT1α (Carnitine palmitoyltransferase 1α, 12894), and CPT2 (Carnitine palmitoyltransferase 2, 12896). GAPDH was used as an internal transcription marker. The reaction was performed a total of 40 cycles (each consisting of 15 sec at 94° C., 30 sec at 58° C., 30 sec at 72° C., and 15 sec at 65° C.). Fluorescence signals were monitored every cycle and the resulting threshold cycles (Ct) were analyzed. mRNA expression in each experimental group was quantified using a CFX96 Real time system (Bio-rad, USA).

Row | Structure (SMILES) | accumulation / size of adipocytes in the liver tissues [1] | hepatic FAS activity [2] | hepatic cholesterol level [3] | hepatic fatty acid level [3] | hepatic triglyceride level [3] | hepatic fatty acid β-oxidation activity (Fatty acid β-oxidation) | hepatic mRNA expression level of CPT1α [4]
1 | OC[C@@H](O)[C@@H](O)CO [ERY, erythritol] | more distinctly observed than in the liver tissues of the ND group | increased significantly compared to those in the ND group | significantly higher than those in the ND group | significantly higher than those in the ND group | significantly higher than those in the ND group | increased significantly compared to those in the ND group | significantly lower than those in the ND group
2 | O=C(CO)[C@@H](O)[C@H](O)[C@H](O)CO [FRU, D-fructose] | more distinctly observed than in the liver tissues of the ND group | increased significantly compared to those in the ND group | significantly higher than those in the ND group | significantly higher than those in the ND group | significantly higher than those in the ND group | increased significantly compared to those in the ND group | significantly lower than those in the ND group
3 | O=C[C@H](O)[C@@H](O)[C@H](O)[C@H](O)CO [GLU, D-glucose] | more distinctly observed than in the liver tissues of the ND group | increased significantly compared to those in the ND group | significantly higher than those in the ND group | significantly higher than those in the ND group | significantly higher than those in the ND group | increased significantly compared to those in the ND group | significantly lower than those in the ND group
4 | O=C(CO)[C@H](O)[C@H](O)[C@H](O)CO [PSI, D-psicose] | smaller than that in the liver tissues of other high-fat diet groups | decreased significantly compared to those in other high-fat diet groups | decreased significantly compared to those in other high-fat diet groups | decreased significantly compared to those in other high-fat diet groups | decreased significantly compared to those in other high-fat diet groups | decreased significantly compared to those in other high-fat diet groups | much significantly lower than those in the ND group
